# From US20260070945A1, “MACROCYCLIC IMMUNOMODULATORS” (Bristol-Myers Squibb Company, priority 2022, published 2026)
# Where a SMILES comes first, the peptide text is derived from it. Bridges are numbered along the chain shown (N, C = ends). [ ]: non-standard residue; d: D form. The star is where a group is joined. ξ: configuration not given here. Phe(3-CF3) = N[C@@H](Cc1cccc(C(F)(F)F)c1)C(=O)O; Phe(4-CF3) = N[C@@H](Cc1ccc(C(F)(F)F)cc1)C(=O)O; Phe(4-COOH) = N[C@@H](Cc1ccc(C(=O)O)cc1)C(=O)O; Bip = N[C@@H](Cc1ccc(-c2ccccc2)cc1)C(=O)O; NH(CH2)14COOH = O=C(O)CCCCCCCCCCCCCCN*; Phe(3-Me) = Cc1cccc(C[C@H](N)C(=O)O)c1; NH(CH2)12COOH = O=C(O)CCCCCCCCCCCCN*; Val(3-OH) = CC(C)(O)[C@H](N)C(=O)O; hArg = N=C(N)NCCCC[C@H](N)C(=O)O; Cha = N[C@@H](CC1CCCCC1)C(=O)O; Cit = NC(=O)NCCC[C@H](N)C(=O)O; Ile(3ξ) = CCC(C)[C@H](N)C(=O)O; Thr(3ξ) = CC(O)[C@H](N)C(=O)O; 12Ado = NCCCCCCCCCCCC(=O)O; Carboxymethyl = O=C(O)C*; NMeA = CN[C@@H](C)C(=O)O; Orn = NCCC[C@H](N)C(=O)O; Aun = NCCCCCCCCCCC(=O)O; Dab = NCC[C@H](N)C(=O)O; Abu = CC[C@H](N)C(=O)O; Dap = NC[C@H](N)C(=O)O; AEEA = NCCOCCOCC(=O)O; Ac3c = NC1(C(=O)O)CC1
# Target: T1, PD-1/PD-L1 interaction (PE-labeled human PD-L1-Ig binding to Jurkat cell line over-expressing human PD-1) (Homo sapiens, UniProt Q15116)
# T1 construct: expressed in transfected cells; host or cells: Jurkat
# T1 sequence (Q15116 25-288): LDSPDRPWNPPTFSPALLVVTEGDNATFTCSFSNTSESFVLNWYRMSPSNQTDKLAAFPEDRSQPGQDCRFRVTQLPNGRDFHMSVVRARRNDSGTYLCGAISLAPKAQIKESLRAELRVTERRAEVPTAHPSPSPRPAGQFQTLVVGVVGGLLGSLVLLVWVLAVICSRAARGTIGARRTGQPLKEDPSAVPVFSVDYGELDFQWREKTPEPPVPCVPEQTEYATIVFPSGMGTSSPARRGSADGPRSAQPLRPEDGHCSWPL
# Test: Jurkat-PD-1 Cell Binding High-Content Screening Assay (CBA)
# Conditions: Jurkat-hPD-1 cells, PE-labeled PD-L1-Ig 20 nM final; read-out: Jurkat HPD1 PDL1 IC50
# Method in brief: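 High-content imaging read-out of PE-PD-L1-Ig binding (20 nM final, 1 h) to Jurkat-hPD-1 cells, after 2 h compound exposure at 37 °C in DMEM with 10% FCS. Nuclei counterstained with Hoechst 33342 after paraformaldehyde fixation.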
row,IC50,SMILES
1,23.1 nM,Cc1cccc(C[C@@H]2NC(=O)[C@H](CC(=O)O)NC(=O)[C@H](Cc3ccc(OCC(=O)O)cc3)NC(=O)[C@H](C(C)O)NC(=O)CSC[C@@H](C(=O)NCCOCCOCC(=O)NCCCCCCCCCCC(=O)O)NC(=O)[C@H](C(C)O)NC(=O)[C@H](C(C)C)NC(=O)[C@H](CC3CCCCC3)NC(=O)[C@H](CCN)NC(=O)[C@@H](CC(C)C)NC(=O)[C@H](C)N(C)C(=O)[C@H](Cc3ccc(OCC(=O)O)cc3)NC(=O)[C@H](Cc3ccc(-c4ccccc4)cc3)NC(=O)[C@H](C(C)C)NC2=O)c1 (stereo partly drawn) [Example 2346] ({CH2CO}-[Thr(3ξ)]Y(Carboxymethyl)D[Phe(3-Me)]V[Bip]Y(Carboxymethyl)[NMeA][dL][Dab][Cha]V[Thr(3ξ)]C[AEEA][Aun]-OH; thioether N-14)
2,16 nM,Cc1cccc(C[C@@H]2NC(=O)[C@H](CC(=O)O)NC(=O)[C@H](Cc3ccc(OCC(=O)O)cc3)NC(=O)[C@H](CCCCNC(=N)N)NC(=O)CSC[C@@H](C(=O)N[C@@H](CO)C(=O)NCCOCCOCC(=O)N[C@@H](CCCN)C(=O)NCCCCCCCCCCCC(=O)O)NC(=O)[C@H](CO)NC(=O)[C@H](C(C)C)NC(=O)[C@H](CC3CCCCC3)NC(=O)[C@H](CCN)NC(=O)[C@@H](CC(C)C)NC(=O)[C@H](C)N(C)C(=O)[C@H](C(C)C)NC(=O)[C@H](Cc3ccc(-c4ccccc4)cc3)NC(=O)[C@H](CC(C)C)NC2=O)c1 [Example 2122] ({CH2CO}-[hArg]Y(Carboxymethyl)D[Phe(3-Me)]L[Bip]V[NMeA][dL][Dab][Cha]VSCS[AEEA][Orn][12Ado]-OH; thioether N-14)
3,142 nM,Cc1cccc(C[C@@H]2NC(=O)[C@H](CC(=O)O)NC(=O)[C@H](Cc3ccc(O)cc3)NC(=O)[C@H](CC(N)=O)NC(=O)CSC[C@@H](C(=O)N[C@@H](CCN)C(=O)NCCCCCCCCCCC(=O)O)NC(=O)[C@H]([C@@H](C)O)NC(=O)[C@H](C(C)C)NC(=O)[C@H](CC3CCCCC3)NC(=O)[C@H](CCN)NC(=O)[C@@H](CC(C)C)NC(=O)[C@H](C)N(C)C(=O)[C@H](Cc3ccc(O)cc3)NC(=O)[C@H](Cc3ccc(-c4ccccc4)cc3)NC(=O)[C@H](C(C)C)NC2=O)c1 [Example 1321] ({CH2CO}-NYD[Phe(3-Me)]V[Bip]Y[NMeA][dL][Dab][Cha]VTC[Dab][Aun]-OH; thioether N-14)
4,22.8 nM,Cc1cccc(C[C@@H]2NC(=O)[C@H](CC(=O)O)NC(=O)[C@H](Cc3ccc(OCC(=O)O)cc3)NC(=O)[C@H](CN)NC(=O)CSC[C@@H](C(=O)NC3(C(=O)NCCOCCOCC(=O)NCCCCCCCCCCC(=O)O)CC3)NC(=O)[C@H](CCCN)NC(=O)[C@H](C(C)C)NC(=O)[C@H](CC3CCCCC3)NC(=O)[C@H](CCN)NC(=O)[C@@H](CC(C)C)NC(=O)[C@H](C)N(C)C(=O)[C@H](Cc3ccc(O)cc3)NC(=O)[C@H](Cc3ccc(-c4ccccc4)cc3)NC(=O)[C@H](Cc3ccc(O)cc3)NC2=O)c1 [Example 1252] ({CH2CO}-[Dap]Y(Carboxymethyl)D[Phe(3-Me)]Y[Bip]Y[NMeA][dL][Dab][Cha]V[Orn]C[Ac3c][AEEA][Aun]-OH; thioether N-14)
5,33.9 nM,Cc1cccc(C[C@@H]2NC(=O)[C@H](CC(=O)O)NC(=O)[C@H](Cc3ccc(OCC(=O)O)cc3)NC(=O)[C@H](CCCNC(=N)N)NC(=O)CSC[C@@H](C(=O)N[C@@H](CCCCN)C(=O)NCCCCCCCCCCC(=O)O)NC(=O)[C@H]([C@@H](C)O)NC(=O)[C@H](C(C)C)NC(=O)[C@H](CC3CCCCC3)NC(=O)[C@H](CCN)NC(=O)[C@@H](CC(C)C)NC(=O)[C@H](C)N(C)C(=O)[C@H](Cc3ccc(OCC(=O)O)cc3)NC(=O)[C@H](Cc3ccc(-c4ccccc4)cc3)NC(=O)[C@H](CCCNC(N)=O)NC2=O)c1 [Example 1227] ({CH2CO}-RY(Carboxymethyl)D[Phe(3-Me)][Cit][Bip]Y(Carboxymethyl)[NMeA][dL][Dab][Cha]VTCK[Aun]-OH; thioether N-14)

# Same assay, conditions: PE-labeled PD-L1-Ig 20 nM final, Jurkat-hPD-1 cells; read-out: Jurkat HPD1 PDL1 IC50
row,IC50,SMILES
1,247 nM,CC(C)C[C@H]1NC(=O)[C@H](C)N(C)C(=O)[C@H](CCC(N)=O)NC(=O)[C@H](Cc2ccc(-c3ccccc3)cc2)NC(=O)[C@H](Cc2ccc(OCC(=O)O)cc2)NC(=O)[C@H](Cc2cccc(C(F)(F)F)c2)NC(=O)[C@H](CC(=O)O)NC(=O)[C@H](Cc2ccc(OCC(=O)O)cc2)NC(=O)[C@H](C)NC(=O)CSC[C@@H](C(=O)N[C@@H](CCN)C(=O)NCCOCCOCC(=O)NCCOCCOCC(=O)N[C@H](CCC(=O)NCCCCCCCCCCCCCCC(=O)O)C(=O)O)NC(=O)[C@H](Cc2cnc[nH]2)NC(=O)[C@H](C(C)(C)O)NC(=O)[C@H](CC2CCCCC2)NC(=O)[C@H](CCN)NC1=O [Example 2628] ({CH2CO}-AY(Carboxymethyl)D[Phe(3-CF3)]Y(Carboxymethyl)[Bip]Q[NMeA][dL][Dab][Cha][Val(3-OH)]HC[Dab][AEEA][AEEA][dE](NH(CH2)14COOH)-OH; thioether N-14)
2,185 nM,CCC(C)[C@@H]1NC(=O)[C@H](Cc2ccc(-c3ccccc3)cc2)NC(=O)[C@H](Cc2ccc(C(F)(F)F)cc2)NC(=O)[C@H](Cc2c[nH]c3ccccc23)NC(=O)[C@H](CC(=O)O)NC(=O)[C@H](Cc2ccc(OCC(=O)O)cc2)NC(=O)[C@H](Cc2cnc[nH]2)NC(=O)CSC[C@@H](C(=O)N[C@@H](CCN)C(=O)NCCOCCOCC(=O)NCCCCCCCCCCC(=O)O)NC(=O)[C@H](CCC(=O)O)NC(=O)[C@H](C(C)(C)O)NC(=O)[C@H](CC2CCCCC2)NC(=O)[C@H](CCN)NC(=O)[C@@H](CC(C)C)NC(=O)[C@H](C)N(C)C1=O (stereo partly drawn) [Example 2590] ({CH2CO}-HY(Carboxymethyl)DW[Phe(4-CF3)][Bip][Ile(3ξ)][NMeA][dL][Dab][Cha][Val(3-OH)]EC[Dab][AEEA][Aun]-OH; thioether N-14)
3,210 nM,CC(=O)NCCCC[C@@H]1NC(=O)[C@H](C(C)(C)O)NC(=O)[C@H](CC2CCCCC2)NC(=O)[C@H](CCN)NC(=O)[C@@H](CC(C)C)NC(=O)[C@H](C)N(C)C(=O)[C@H](CCC(N)=O)NC(=O)[C@H](Cc2ccc(-c3ccccc3)cc2)NC(=O)[C@H](Cc2ccc(C(F)(F)F)cc2)NC(=O)[C@H](Cc2cccc(C)c2)NC(=O)[C@H](CC(=O)O)NC(=O)[C@H](Cc2ccc(OCC(=O)O)cc2)NC(=O)[C@H](Cc2ccc(OCC(=O)O)cc2)NC(=O)CSC[C@@H](C(=O)N[C@@H](CCN)C(=O)NCCCCCCCCCCCCCCC(=O)O)NC1=O [Example 2618] ({CH2CO}-Y(Carboxymethyl)Y(Carboxymethyl)D[Phe(3-Me)][Phe(4-CF3)][Bip]Q[NMeA][dL][Dab][Cha][Val(3-OH)]K(Ac)C[Dab]-{NH(CH2)14COOH}; thioether N-14)
4,45.3 nM,CC[C@@H]1NC(=O)CSC[C@@H](C(=O)N[C@@H](CCN)C(=O)NCCCCCCCCCCCCC(=O)O)NC(=O)[C@H](CO)NC(=O)[C@H](C(C)(C)O)NC(=O)[C@H](CC2CCCCC2)NC(=O)[C@H](CCN)NC(=O)[C@@H](CC(C)C)NC(=O)[C@H](C)N(C)C(=O)[C@H](Cc2ccc(C(=O)O)cc2)NC(=O)[C@H](Cc2ccc(-c3ccccc3)cc2)NC(=O)[C@H](Cc2ccc(C(=O)O)cc2)NC(=O)[C@H](Cc2cccc(C(F)(F)F)c2)NC(=O)[C@H](CC(=O)O)NC(=O)[C@H](Cc2ccc(C(=O)O)cc2)NC1=O [Example 2569] ({CH2CO}-[Abu][Phe(4-COOH)]D[Phe(3-CF3)][Phe(4-COOH)][Bip][Phe(4-COOH)][NMeA][dL][Dab][Cha][Val(3-OH)]SC[Dab]-{NH(CH2)12COOH}; thioether N-14)
